Data published in article PMC7265341, “Quantifying CDK inhibitor selectivity in live cells” (Nature Communications, 2020).
Read-outs that look alike come from different tables or passages of the source.

Legend:
[1] = molecular target: CDK15/Cyclin Y (Homo sapiens, UniProt Q96Q40); assay: NanoBRET live-cell target engagement, NanoLuc-CDK15/Cyclin Y in HEK-293; format: binding; conditions: CDK15/Y
[2] = molecular target: CDK5/CDK5R1 (Homo sapiens, UniProt Q00535); assay: NanoBRET live-cell target engagement, CDK5-NanoLuc/CDK5R1 in HEK-293; format: binding; conditions: CDK5/CDK5R1
[3] = molecular target: CDK9/Cyclin K (Homo sapiens, UniProt P50750); assay: NanoBRET live-cell target engagement, NanoLuc-CDK9/Cyclin K in HEK-293; format: binding; conditions: CDK9/K
CDK9/Cyclin K, sequence (P50750 whole entry): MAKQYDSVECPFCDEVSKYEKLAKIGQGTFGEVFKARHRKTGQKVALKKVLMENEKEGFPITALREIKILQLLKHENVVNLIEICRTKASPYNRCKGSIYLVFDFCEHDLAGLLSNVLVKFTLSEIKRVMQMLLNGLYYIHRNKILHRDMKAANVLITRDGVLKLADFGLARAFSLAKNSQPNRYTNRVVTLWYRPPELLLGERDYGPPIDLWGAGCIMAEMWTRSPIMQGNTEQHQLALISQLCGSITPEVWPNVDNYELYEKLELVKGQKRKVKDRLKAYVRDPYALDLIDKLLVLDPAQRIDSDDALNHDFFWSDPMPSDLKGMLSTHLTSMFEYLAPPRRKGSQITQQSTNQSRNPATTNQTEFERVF
CDK9/Cyclin K, sequence (O75909 whole entry partner): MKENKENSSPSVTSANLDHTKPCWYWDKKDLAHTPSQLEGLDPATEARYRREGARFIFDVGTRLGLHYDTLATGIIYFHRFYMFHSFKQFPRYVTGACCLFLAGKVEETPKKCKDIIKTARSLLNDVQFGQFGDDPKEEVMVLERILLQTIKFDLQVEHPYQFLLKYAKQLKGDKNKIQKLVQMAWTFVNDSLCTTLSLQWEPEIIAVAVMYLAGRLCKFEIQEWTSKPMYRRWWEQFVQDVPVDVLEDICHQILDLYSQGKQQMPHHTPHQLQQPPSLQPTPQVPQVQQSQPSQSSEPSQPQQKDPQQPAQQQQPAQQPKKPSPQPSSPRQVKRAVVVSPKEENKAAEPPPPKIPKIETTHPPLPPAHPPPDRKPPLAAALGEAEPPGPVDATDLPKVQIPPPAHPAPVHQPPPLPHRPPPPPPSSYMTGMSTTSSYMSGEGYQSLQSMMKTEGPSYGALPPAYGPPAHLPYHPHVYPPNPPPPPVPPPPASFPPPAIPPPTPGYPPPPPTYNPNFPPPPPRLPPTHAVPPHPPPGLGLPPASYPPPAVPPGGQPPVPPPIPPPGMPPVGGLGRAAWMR

[4] = molecular target: T1, CDK11A/Cyclin L2 (Homo sapiens, UniProt Q9UQ88); assay: NanoBRET live-cell target engagement, CDK11A-NanoLuc/Cyclin L2 in HEK-293; format: binding; conditions: CDK11a/L2
T1 sequence (Q9UQ88 1-783): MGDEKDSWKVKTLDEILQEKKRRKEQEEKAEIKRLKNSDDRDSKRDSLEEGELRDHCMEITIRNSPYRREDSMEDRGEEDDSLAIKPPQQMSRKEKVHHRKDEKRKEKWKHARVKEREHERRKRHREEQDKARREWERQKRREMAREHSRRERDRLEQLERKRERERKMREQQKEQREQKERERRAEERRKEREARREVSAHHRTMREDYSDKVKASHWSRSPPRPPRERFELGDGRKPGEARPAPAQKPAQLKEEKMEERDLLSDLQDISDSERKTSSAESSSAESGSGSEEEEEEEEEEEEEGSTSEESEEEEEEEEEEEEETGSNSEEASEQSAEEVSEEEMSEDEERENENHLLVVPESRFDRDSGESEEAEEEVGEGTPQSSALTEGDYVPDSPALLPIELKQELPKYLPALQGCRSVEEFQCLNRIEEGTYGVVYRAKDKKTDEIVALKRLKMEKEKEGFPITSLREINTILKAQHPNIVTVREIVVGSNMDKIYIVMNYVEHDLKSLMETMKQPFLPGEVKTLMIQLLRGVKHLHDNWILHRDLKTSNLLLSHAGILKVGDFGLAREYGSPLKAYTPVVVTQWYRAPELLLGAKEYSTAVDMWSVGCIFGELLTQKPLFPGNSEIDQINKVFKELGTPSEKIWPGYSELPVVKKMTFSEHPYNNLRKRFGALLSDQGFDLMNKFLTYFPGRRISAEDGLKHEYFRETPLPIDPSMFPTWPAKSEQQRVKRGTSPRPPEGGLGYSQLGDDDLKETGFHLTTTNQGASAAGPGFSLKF

[5] = molecular target: CDK18/Cyclin Y (Homo sapiens, UniProt Q07002); assay: NanoBRET live-cell target engagement, CDK18-NanoLuc/Cyclin Y in HEK-293; format: binding; conditions: CDK18/Y
[6] = molecular target: CDK4/Cyclin D1 (Homo sapiens, UniProt P11802); assay: NanoBRET live-cell target engagement, NanoLuc-CDK4/Cyclin D1 in HEK-293; format: binding; conditions: CDK4/D1; for IC50: read-out: IC50
[7] = molecular target: CDK12/Cyclin K (Homo sapiens, UniProt Q9NYV4); assay: NanoBRET live-cell target engagement, CDK12-NanoLuc/Cyclin K in HEK-293; format: binding; conditions: CDK12/K
[8] = molecular target: CDK19/Cyclin C (Homo sapiens, UniProt Q9BWU1); assay: NanoBRET live-cell target engagement, NanoLuc-CDK19/Cyclin C in HEK-293; conditions: CDK19/C
[9] = molecular target: CDK10/Cyclin L2 (Homo sapiens, UniProt Q15131); assay: NanoBRET live-cell target engagement, CDK10-NanoLuc/Cyclin L2 in HEK-293; conditions: CDK10/L2
CDK10/Cyclin L2, sequence (Q15131 whole entry): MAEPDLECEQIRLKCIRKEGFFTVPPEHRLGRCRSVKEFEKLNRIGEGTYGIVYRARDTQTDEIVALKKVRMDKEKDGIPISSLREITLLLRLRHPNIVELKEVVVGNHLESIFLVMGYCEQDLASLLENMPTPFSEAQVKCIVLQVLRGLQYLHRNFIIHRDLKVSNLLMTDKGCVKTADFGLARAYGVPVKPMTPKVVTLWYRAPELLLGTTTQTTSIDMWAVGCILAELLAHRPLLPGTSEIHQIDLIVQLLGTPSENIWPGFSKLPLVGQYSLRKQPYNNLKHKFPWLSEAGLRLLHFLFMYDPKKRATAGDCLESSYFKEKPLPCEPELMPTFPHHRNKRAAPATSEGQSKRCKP

[10] = molecular target: CDK16/Cyclin Y (Homo sapiens, UniProt Q00536); assay: NanoBRET live-cell target engagement, CDK16-NanoLuc/Cyclin Y in HEK-293; format: binding; conditions: CDK16/Y
[11] = molecular target: CDK6/Cyclin D1 (Homo sapiens, UniProt Q00534); assay: NanoBRET live-cell target engagement, NanoLuc-CDK6/Cyclin D1 in HEK-293; format: binding; conditions: CDK6/D1; for IC50: read-out: IC50
[12] = molecular target: CDK14/Cyclin Y (Homo sapiens, UniProt O94921); assay: NanoBRET live-cell target engagement, CDK14-NanoLuc/Cyclin Y in HEK-293; format: binding; conditions: CDK14/Y
CDK14/Cyclin Y, sequence (O94921 whole entry): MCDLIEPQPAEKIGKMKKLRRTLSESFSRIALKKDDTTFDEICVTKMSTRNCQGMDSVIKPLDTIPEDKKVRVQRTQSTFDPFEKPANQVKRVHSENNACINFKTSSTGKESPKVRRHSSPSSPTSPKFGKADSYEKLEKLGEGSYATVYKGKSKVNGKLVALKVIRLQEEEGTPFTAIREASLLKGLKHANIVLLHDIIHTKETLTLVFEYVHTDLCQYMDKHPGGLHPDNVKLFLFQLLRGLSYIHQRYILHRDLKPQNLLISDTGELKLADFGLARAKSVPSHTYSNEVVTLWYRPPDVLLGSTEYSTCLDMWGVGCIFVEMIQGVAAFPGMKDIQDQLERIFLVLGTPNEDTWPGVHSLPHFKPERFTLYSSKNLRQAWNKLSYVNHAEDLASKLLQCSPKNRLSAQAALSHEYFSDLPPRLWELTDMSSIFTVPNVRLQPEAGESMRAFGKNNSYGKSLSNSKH
CDK14/Cyclin Y, sequence (Q8ND76 whole entry partner): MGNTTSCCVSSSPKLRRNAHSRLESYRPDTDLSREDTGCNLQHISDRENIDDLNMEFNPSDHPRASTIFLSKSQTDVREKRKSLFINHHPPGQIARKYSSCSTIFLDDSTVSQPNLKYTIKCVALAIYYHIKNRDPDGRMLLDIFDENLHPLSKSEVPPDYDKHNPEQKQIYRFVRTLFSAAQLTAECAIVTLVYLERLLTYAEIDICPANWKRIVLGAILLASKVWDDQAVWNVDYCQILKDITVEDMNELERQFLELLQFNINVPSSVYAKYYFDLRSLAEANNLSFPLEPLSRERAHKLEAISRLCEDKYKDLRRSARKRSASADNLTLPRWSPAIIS

[13] = molecular target: CDK1/Cyclin E1 (Homo sapiens, UniProt P06493); assay: NanoBRET live-cell target engagement, CDK1-NanoLuc/Cyclin E1 in HEK-293; format: binding; conditions: CDK1/E1
CDK1/Cyclin E1, sequence (P06493 whole entry): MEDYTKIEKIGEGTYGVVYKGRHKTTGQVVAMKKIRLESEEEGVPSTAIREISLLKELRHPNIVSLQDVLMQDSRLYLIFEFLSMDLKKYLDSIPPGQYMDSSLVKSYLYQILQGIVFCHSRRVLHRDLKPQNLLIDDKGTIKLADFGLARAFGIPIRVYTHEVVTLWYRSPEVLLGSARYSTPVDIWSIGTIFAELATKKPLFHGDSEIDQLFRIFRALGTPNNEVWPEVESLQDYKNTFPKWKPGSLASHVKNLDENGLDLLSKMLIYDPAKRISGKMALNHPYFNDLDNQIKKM
CDK1/Cyclin E1, sequence (P24864 whole entry partner): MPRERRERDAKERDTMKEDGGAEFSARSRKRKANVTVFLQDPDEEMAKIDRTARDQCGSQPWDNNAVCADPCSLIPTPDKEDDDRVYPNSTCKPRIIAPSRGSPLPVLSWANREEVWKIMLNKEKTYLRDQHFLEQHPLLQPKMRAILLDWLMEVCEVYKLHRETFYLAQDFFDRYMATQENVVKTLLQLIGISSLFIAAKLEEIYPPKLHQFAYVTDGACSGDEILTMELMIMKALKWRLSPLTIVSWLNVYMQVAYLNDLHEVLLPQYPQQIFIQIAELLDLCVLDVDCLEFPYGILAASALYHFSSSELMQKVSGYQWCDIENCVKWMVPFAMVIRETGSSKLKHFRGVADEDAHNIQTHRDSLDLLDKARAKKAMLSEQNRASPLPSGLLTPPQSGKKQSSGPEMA

[14] = molecular target: CDK20/Cyclin H (Homo sapiens, UniProt Q8IZL9); assay: NanoBRET live-cell target engagement, NanoLuc-CDK20/Cyclin H in HEK-293; format: binding; conditions: CDK20/H
[15] = molecular target: CDK8/Cyclin C (Homo sapiens, UniProt P49336); assay: NanoBRET live-cell target engagement, NanoLuc-CDK8/Cyclin C in HEK-293; format: binding; conditions: CDK8/C
[16] = molecular target: CDK11B/Cyclin L2 (Homo sapiens, UniProt P21127); assay: NanoBRET live-cell target engagement, CDK11B-NanoLuc/Cyclin L2 in HEK-293; format: binding; conditions: CDK11b/L2
[17] = molecular target: CDK13/Cyclin K (Homo sapiens, UniProt Q14004); assay: NanoBRET live-cell target engagement, CDK13-NanoLuc/Cyclin K in HEK-293; format: binding; conditions: CDK13/K
CDK13/Cyclin K, sequence (O75909 whole entry): as the sequence (O75909 whole entry partner) above
CDK13/Cyclin K, sequence (Q14004 other isoform, or with tags, fused parts or gaps): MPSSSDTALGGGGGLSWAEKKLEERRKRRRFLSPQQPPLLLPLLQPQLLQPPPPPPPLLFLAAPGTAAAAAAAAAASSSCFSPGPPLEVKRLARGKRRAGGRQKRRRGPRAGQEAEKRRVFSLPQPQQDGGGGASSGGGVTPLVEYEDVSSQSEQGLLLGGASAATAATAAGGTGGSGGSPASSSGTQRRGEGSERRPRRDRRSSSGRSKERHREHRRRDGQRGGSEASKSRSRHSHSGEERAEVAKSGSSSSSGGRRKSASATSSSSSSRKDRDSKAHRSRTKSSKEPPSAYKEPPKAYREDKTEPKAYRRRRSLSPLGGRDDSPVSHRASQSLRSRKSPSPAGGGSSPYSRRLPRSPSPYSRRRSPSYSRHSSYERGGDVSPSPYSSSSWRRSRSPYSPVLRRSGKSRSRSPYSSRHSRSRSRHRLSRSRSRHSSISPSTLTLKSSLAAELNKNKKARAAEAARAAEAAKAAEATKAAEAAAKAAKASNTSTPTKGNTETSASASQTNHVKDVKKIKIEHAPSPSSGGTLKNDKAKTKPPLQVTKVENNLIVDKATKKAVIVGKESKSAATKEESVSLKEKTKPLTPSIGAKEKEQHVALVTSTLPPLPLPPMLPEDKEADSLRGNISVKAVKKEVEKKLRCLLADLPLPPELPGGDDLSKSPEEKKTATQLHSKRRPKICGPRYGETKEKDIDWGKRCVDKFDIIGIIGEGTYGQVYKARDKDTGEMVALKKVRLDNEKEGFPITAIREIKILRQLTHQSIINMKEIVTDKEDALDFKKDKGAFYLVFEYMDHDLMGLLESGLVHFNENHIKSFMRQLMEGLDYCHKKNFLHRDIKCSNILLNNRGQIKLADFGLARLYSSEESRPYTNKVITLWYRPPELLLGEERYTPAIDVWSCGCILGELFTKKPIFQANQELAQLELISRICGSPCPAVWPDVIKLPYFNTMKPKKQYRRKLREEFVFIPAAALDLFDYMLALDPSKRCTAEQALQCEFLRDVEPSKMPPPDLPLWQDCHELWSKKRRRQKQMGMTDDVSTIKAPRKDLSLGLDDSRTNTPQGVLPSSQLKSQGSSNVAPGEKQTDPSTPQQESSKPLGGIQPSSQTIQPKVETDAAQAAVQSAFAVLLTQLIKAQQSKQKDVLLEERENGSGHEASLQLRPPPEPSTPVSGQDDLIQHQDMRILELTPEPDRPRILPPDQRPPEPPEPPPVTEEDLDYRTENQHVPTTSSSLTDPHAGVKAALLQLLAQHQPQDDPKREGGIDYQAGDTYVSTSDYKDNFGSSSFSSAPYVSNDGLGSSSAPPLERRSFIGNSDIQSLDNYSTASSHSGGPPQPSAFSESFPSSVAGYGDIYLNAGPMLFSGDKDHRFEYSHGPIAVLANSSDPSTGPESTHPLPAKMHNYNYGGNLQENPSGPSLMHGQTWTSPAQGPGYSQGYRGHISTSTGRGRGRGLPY

[18] = molecular target: CDK17/Cyclin Y (Homo sapiens, UniProt Q00537); assay: NanoBRET live-cell target engagement, CDK17-NanoLuc/Cyclin Y in HEK-293; format: binding; conditions: CDK17/Y
CDK17/Cyclin Y, sequence (Q00537 whole entry): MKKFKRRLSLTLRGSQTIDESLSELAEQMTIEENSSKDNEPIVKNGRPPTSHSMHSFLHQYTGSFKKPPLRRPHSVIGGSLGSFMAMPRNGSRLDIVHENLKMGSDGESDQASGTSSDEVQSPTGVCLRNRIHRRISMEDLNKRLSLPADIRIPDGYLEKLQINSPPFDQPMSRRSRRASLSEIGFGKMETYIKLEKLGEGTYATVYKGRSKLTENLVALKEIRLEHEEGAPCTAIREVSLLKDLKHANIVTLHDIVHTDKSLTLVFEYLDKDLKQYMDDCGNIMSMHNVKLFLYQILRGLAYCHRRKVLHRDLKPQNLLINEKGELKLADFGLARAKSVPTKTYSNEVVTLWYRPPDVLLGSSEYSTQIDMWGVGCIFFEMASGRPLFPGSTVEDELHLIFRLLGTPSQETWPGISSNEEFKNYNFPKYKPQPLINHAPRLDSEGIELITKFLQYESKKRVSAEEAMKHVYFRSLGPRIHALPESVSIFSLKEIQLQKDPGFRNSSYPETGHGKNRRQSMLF
CDK17/Cyclin Y, sequence (Q8ND76 whole entry partner): as the sequence (Q8ND76 whole entry partner) above

[19] = molecular target: CDK2/Cyclin E1 (Homo sapiens, UniProt P24941); assay: NanoBRET live-cell target engagement, CDK2-NanoLuc/Cyclin E1 in HEK-293; format: binding; conditions: CDK2/E1

Inhibition at 10µM (%) ([1]; average): 28.5% | Inhibition at 10µM (%) ([1]; experiment 1): 33.3% | Inhibition at 10µM (%) ([1]; experiment 2): 23.7% | Inhibition at 10µM (%) ([2]; average): 26.1% | Inhibition at 10µM (%) ([2]; experiment 1): 31.1% | Inhibition at 10µM (%) ([2]; experiment 2): 21.1% | Inhibition at 10µM (%) ([3]; average): 96.7% | Inhibition at 10µM (%) ([3]; experiment 1): 94.9% | Inhibition at 10µM (%) ([3]; experiment 2): 98.4% | Inhibition at 10µM (%) ([4]; average): 34.1% | Inhibition at 10µM (%) ([4]; experiment 1): 43.4% | Inhibition at 10µM (%) ([4]; experiment 2): 24.8% | Inhibition at 10µM (%) ([5]; average): 57.3% | Inhibition at 10µM (%) ([5]; experiment 1): 55.4% | Inhibition at 10µM (%) ([5]; experiment 2): 59.3% | Inhibition at 10µM (%) ([6]; average): 80.8% | IC50 ([6]; average (± SEM where n=3)): 400 ± 100 nM | Inhibition at 10µM (%) ([6]; experiment 1): 79.0% | IC50 ([6]; experiment 1): 690 nM | Inhibition at 10µM (%) ([6]; experiment 2): 82.6% | IC50 ([6]; experiment 2): 200 nM | IC50 ([6]; experiment 3): 301 nM | Inhibition at 10µM (%) ([7]; average): 3.3% | Inhibition at 10µM (%) ([7]; experiment 1): 2.5% | Inhibition at 10µM (%) ([7]; experiment 2): 4.1% | Inhibition at 10µM (%) ([8]; average): 72.1% | Inhibition at 10µM (%) ([8]; experiment 1): 76.3% | Inhibition at 10µM (%) ([8]; experiment 2): 67.9% | Inhibition at 10µM (%) ([9]; average): 11.6% | Inhibition at 10µM (%) ([9]; experiment 1): 10.1% | Inhibition at 10µM (%) ([9]; experiment 2): 13.1% | Inhibition at 10µM (%) ([10]; experiment 1): 61.8% | Inhibition at 10µM (%) ([10]; experiment 2): 61.2% | Inhibition at 10µM (%) ([11]; average): 83.0% | IC50 ([11]; average (± SEM where n=3)): 500 ± 100 nM | Inhibition at 10µM (%) ([11]; experiment 1): 78.3% | IC50 ([11]; experiment 1): 550 nM | Inhibition at 10µM (%) ([11]; experiment 2): 87.7% | IC50 ([11]; experiment 2): 220 nM | IC50 ([11]; experiment 3): 659 nM | Inhibition at 10µM (%) ([12]; average): 50.9% | Inhibition at 10µM (%) ([12]; experiment 1): 51.1% | Inhibition at 10µM (%) ([12]; experiment 2): 50.7% | Inhibition at 10µM (%) ([13]; average): 41.0% | Inhibition at 10µM (%) ([13]; experiment 1): 45.9% | Inhibition at 10µM (%) ([13]; experiment 2): 36.2% | Inhibition at 10µM (%) ([14]; experiment 1): -0.6% | Inhibition at 10µM (%) ([14]; experiment 2): -6.9% | Inhibition at 10µM (%) ([15]; average): 79.0% | Inhibition at 10µM (%) ([15]; experiment 1): 82.7% | Inhibition at 10µM (%) ([15]; experiment 2): 75.3% | Inhibition at 10µM (%) ([16]; average): 58.5% | Inhibition at 10µM (%) ([16]; experiment 1): 56.7% | Inhibition at 10µM (%) ([16]; experiment 2): 60.4% | Inhibition at 10µM (%) ([17]; average): 11.2% | Inhibition at 10µM (%) ([17]; experiment 1): 12.5% | Inhibition at 10µM (%) ([17]; experiment 2): 9.8% | Inhibition at 10µM (%) ([18]; average): 71.1% | Inhibition at 10µM (%) ([18]; experiment 1): 75.5% | Inhibition at 10µM (%) ([18]; experiment 2): 66.7% | Inhibition at 10µM (%) ([19]; average): 22.7% | Inhibition at 10µM (%) ([19]; experiment 1): 16.7% | Inhibition at 10µM (%) ([19]; experiment 2): 28.7%
Compound: CN1CCC(c2c(O)cc(O)c3c(=O)cc(-c4ccccc4Cl)oc23)C1CO (stereo not drawn) [P276-00]
